Results published in publication PMC8599359 (Molecular Neurobiology, 2021).

Assays:
Format in all cases: in vivo, mouse
[1] = tested on: MMP-9; experiment: MMP expression in embryo brain (Western blot); details: GD 16.5, DTG vs control
Method: (§1) At GD 16.5, embryo whole brain tissues were isolated and homogenized in lysis buffer. Whole brain tissue homogenates were analyzed for expression of MMP-2, 9, and 14 using Western blot assay. Six pups were randomly selected from 6 different dams for both DTG- and vehicle-treated groups. Tissue lysates were centrifuged at 16,000 × g at 4 °C for 20 min and supernatants were collected. Total protein levels in each sample were quantitated using Pierce™ BCA Protein Assay Kit (Thermo Fisher Scientific). Fifteen micrograms of protein for each sample was ran on 10% SDS–polyacrylamide gel. Proteins were transferred to activated PVDF membrane. Membranes were blocked with 5% non-fat milk (BIO-RAD) for 1 h and incubated with individual primary antibody overnight at 4 °C on a shaker. The primary antibodies used were rabbit monoclonal anti-MMP-2 (ab181286, abcam, Cambridge, MA), rabbit polyclonal anti-MMP-9 (ab38898, abcam), rabbit monoclonal anti-MMP-14 (ab51074, abcam), rabbit monoclonal GAPDH (Cell Signaling Technology, Inc., Danvers, MA), and mouse monoclonal β-actin (Santa Cruz Biotechnology, Dallas, TX). All the primary antibodies were used at 1:2000 dilution. After overnight incubation with primary antibody, the membranes were washed with Tris-buffered saline with 0.1% Tween® 20 detergent (TBST) three times (5 min each wash). Membranes were then incubated with secondary antibody for 1 h at room temperature. The secondary antibodies used were goat anti-rabbit IgG H&L (HRP) (ab205718, abcam) and goat anti-mouse IgG H&L (HRP) (ab205719, abcam). For secondary antibodies, 1:10,000 dilutions were used. Blots were developed using SuperSignal™ West Femto Maximum Sensitivity Substrate (Thermo Fisher Scientific) and iBright 750 Imaging System. Band intensity was analyzed using ImageJ software.

[2] = tested on: MMP-14; experiment: MMP expression in embryo brain (Western blot); details: GD 16.5, DTG vs control
Method: as §1

[3] = tested on: MMP-2; experiment: MMP expression in embryo brain (Western blot); details: GD 16.5, DTG vs control
Method: as §1

[4] = Embryo phenotype assessments; details: female, C3H/HeJ, mouse, in vivo, oral; GD 16.5, 50 mg/kg/day; read-out: Total viable embryos (%)
Text: (§2) For all animal experiments, C3H/HeJ (10–12 weeks of age, male and female) were purchased from the Jackson Laboratory (Bar Harbor, ME), and were housed in microisolator cages containing autoclaved corncob bedding, and maintained on a 12‐h light‐dark cycle in climate‐controlled laboratory animal facilities approved by the University of Nebraska Medical Center Institutional Animal Care and Use Committee (IACUC). Mice were given free access to irradiated rodent feed (TD. 180,911, Envigo Teklad diet, Madison, WI) and sterile water. Animals were acclimated to the environment for approximately 7–14 days to determine that they were healthy based on observed behavior and weight gain. A female was placed with a male overnight for the purpose of timed matings. The following morning males were removed from the cages and positive vaginal plugs were identified. […] The time of conception was considered to be midnight on the evening of the mating. Treatment of plugged females was started at the morning of the day of plug detection (gestation day (GD) 0.5). […] Pregnant dams were randomly assigned to DTG or vehicle (control) group. Weight gain in dams was measured on GD 0.5, 5.5, 10.5, and 15.5. At GD 16.5, dams were humanely euthanized, and embryos and placenta were harvested. Embryos were evaluated for NTDs. At the time of harvest, the total number of implants (litter size, resorption rates, or viable embryos) was recorded for each pregnancy. Further, whole brain tissues from normal viable embryos were isolated and processed for examination of MMP expression and activity.

[5] = tested on: pregnant C3H/HeJ mice, embryos; experiment: Embryo phenotype assessments
Text: as §2

[6] = tested on: C3H/HeJ mice pups; experiment: Pregnancy and postnatal outcomes after in utero exposure
Text: For all animal experiments, C3H/HeJ (10–12 weeks of age, male and female) were purchased from the Jackson Laboratory (Bar Harbor, ME), and were housed in microisolator cages containing autoclaved corncob bedding, and maintained on a 12‐h light‐dark cycle in climate‐controlled laboratory animal facilities approved by the University of Nebraska Medical Center Institutional Animal Care and Use Committee (IACUC). Mice were given free access to irradiated rodent feed (TD. 180,911, Envigo Teklad diet, Madison, WI) and sterile water. Animals were acclimated to the environment for approximately 7–14 days to determine that they were healthy based on observed behavior and weight gain. A female was placed with a male overnight for the purpose of timed matings. The following morning males were removed from the cages and positive vaginal plugs were identified. […] The time of conception was considered to be midnight on the evening of the mating. Treatment of plugged females was started at the morning of the day of plug detection (gestation day (GD) 0.5).
Mice pups at this stage of development (PND 28) are equivalent to humans of 2 years of age. […] Pregnant dams were randomly assigned to DTG or vehicle group. […] Survival rate of pups was 100% between PND 4 and 21 in both groups. Further body weights of pups were measured during preweaning duration. […] Furthermore, between age PND 28 and 34, live animals were evaluated for biochemical changes in the brain by magnetic resonance imaging (MRI) (Fig. 5D–F). All the tests were performed around 6 days post weaning to avoid confounding effect of stress related to separation from mother. Microstructural and metabolite measurements were conducted in live pups using bioimaging methods, diffusion tensor imaging (DTI), and magnetic resonance spectroscopy (^1H MRS), respectively (Fig. 5D–F). First, pups were scanned using DTI to determine microstructural changes in six different brain regions, hippocampus (HI), cortex (CT), striatum (ST), thalamus (TH), hypothalamus (HY), and cerebellum (CE). […] As FA represents anisotropic movement of water molecules along the axons, reduction in FA values indicated axonal and/or myelin damage in developing brain of adolescent pups in the DTG-treated group. […] This allowed evaluation of sex as a biological variant (Supplementary Fig. 4). […] Further, the same pups were scanned using ^1H MRS to measure N-acetylaspartate (NAA), total choline (tCho), and total creatine (tCre) in hippocampus (HI) only (Fig. 5F). NAA is a highly concentrated metabolite in the CNS and is a neuron-specific metabolite that acts as a non-invasive ^1H MRS marker for neuronal integrity, health, and cell number. […] Similar to DTI, sex differences were evaluated in the ^1H MRS study (Supplementary Fig. 5).

[7] = GD 16.5, 50 mg/kg/day, of 103 viable
[8] = GD 16.5, 50 mg/kg/day, of 130 implants
[9] = dams 50 mg/kg/day oral through entire gestation

C[C@@H]1CCO[C@H]2Cn3cc(C(=O)NCc4ccc(F)cc4F)c(=O)c(O)c3C(=O)N12 [DTG, Dolutegravir]
protein levels of MMP-9 in embryo brain tissue [1]: No significant differences
protein levels of MMP-14 in embryo brain tissue [2]: No significant differences
protein levels of MMP-2 in embryo brain tissue [3]: No significant differences
viability [4]: 79.2%
maternal body weight gain during gestation ([5]; 50 mg/kg/day oral GD 0.5-15.5, DTG vs control): No differences
Abnormal/litter ([5]; GD 16.5, 50 mg/kg/day): 0.05
Implants/litter (mean litter size) ([5]; GD 16.5, 50 mg/kg/day): 7.6
Resorptions/litter ([5]; GD 16.5, 50 mg/kg/day): 1.5
Total resorptions (%) ([5]; GD 16.5, 50 mg/kg/day): 20.76%
Viable embryos/litter ([5]; GD 16.5, 50 mg/kg/day): 6.05
Total implants ([5]; GD 16.5, 50 mg/kg/day, 17 litters): 130
Viable embryos abnormal, exencephaly (number) [5, 7]: 1
Viable embryos normal (number) [5, 7]: 102
Total resorptions (number) [5, 8]: 27
Total viable embryos (number) [5, 8]: 103
Average body weight of pups ([6]; PND 12, in utero exposure): 5.1 ± 0.4 g
Average body weight of pups ([6]; PND 21, in utero exposure): 7.5 ± 0.4 g
No. of female pups delivered per litter [6, 9]: 1.2
No. of male pups delivered per litter [6, 9]: 2.2
No. of pups delivered per litter (average litter size) [6, 9]: 3.5
male to female ratio per litter [6, 9]: 2.0
% pup survival (PND 4 to PND 21) ([6]; in utero exposure): 100%
% pup survival (birth to PND 4) ([6]; in utero exposure): 92.8%
structural malformations or variations in newborn pups ([6]; in utero exposure): no structural malformations or variations
